Columns and labels:
mouse SKH2 [1] = assay: In vivo pro-pigmenting activity by topical route with NB-UVB, clinical score of pigmentation; conditions: 8% topical on the back of SKH2 mice, 43 days, in combination with NB-UVB irradiation (60 mJ/cm2); versus irradiated group treated with the vehicle
Protocol: (§1) In mice, melanocytes are not present in the epidermis of hair-covered areas but are mainly present in the hair follicles. Pigmentation can be induced by irradiation with UVB in combination with topical or oral agents. The pigmentation changes can be quantified by various means such as clinical score pigmentation and pigmentation measurement by image analysis.
(§2) The evaluation of the MC1R receptor agonists pro-pigmenting activity in combination with NB-UVB irradiation (60 mJ/cm2) is performed by topical application on the back of the mouse SKH2 during 43 days with MC1R agonist compound A at 8% or MC1R agonist compound B at 8% in combination with NB-UVB radiation.
(§3) Practically, the animals were irradiated using the system Biospectra equipped NB-UVB lamps (peak emission maximum at 312 nm) irradiation at 3 times per week at 60 mJ/cm^2 on Monday, Wednesday and Friday. The treatment is carried out 5 days a week and 50 μl of the test product (compounds A or B) is diluted in the vehicle and applied on the back. In the case of associations with radiation, the compounds are administered after irradiation.
(§4) Then, the pigmentation changes is quantified by clinical score pigmentation and pigmentation measurement by image analysis.
The clinical score of animals is performed 1 time per week before irradiation. The pigmentation is evaluated with a score on a scale of 0 to 4. […]

mouse SKH2 [2] = assay: In vivo pro-pigmenting activity by topical route with NB-UVB, quantification of pigmentation by image analysis at the end of study; conditions: 8% topical on the back of SKH2 mice, in combination with NB-UVB irradiation (60 mJ/cm2)
Protocol: as §1, §2, §3, §4
At the end of the study, for each animal, two digital photographs of the skin of the back are made with a high quality dermascope and digital camera such as the LiteScope™. […]

SMILES	pigmentation of the skin (clinical score of pigmentation, FIGS. 1 and 2) (mouse SKH2 [1])	pigmentation level at the end of the study by image analysis (FIG. 3) (mouse SKH2 [2])
CCOC(=O)C1(C2CCCCC2)CCN(C(=O)[C@@H](Cc2ccc(OC)cc2)NC(=O)NCCc2c[nH]cn2)CC1 [Compound A, 4-Cyclohexyl-1-[(R)-2-{3-[2-(1H-imidazol-4-yl)-ethyl]-ureido}-3-(4-methoxy-phenyl)-propionyl]-piperidine-4-ethyl-carboxylate]	significantly increases the pigmentation of the skin	synergistic effect is confirmed
COc1ccc(C[C@@H](NC(=O)CCc2nc[nH]c2C)C(=O)N2CC(OCC3CC3)(c3ccccc3C)C2)cc1 [compound B, N—[(R)-2-(3-Cyclopropylmethoxy-3-o-tolyl-azetidin-1-yl)-1-(4-methoxy-benzyl)-2-oxo-ethyl]-3-(5-methyl-1H-imidazol-4-yl)-propionamide]	significantly increases the pigmentation of the skin	–
